Experimental data: patent publication US7355074B2, “Compounds having aromatic rings and side-chain amide-functionality and a method for transporting monovalent anions across biological membranes using the same” (The University of Maryland, priority 2003, dated 2008)

Columns and labels:
[1] = sodium picrate extraction in CDCl3 monitored by 1H NMR; assay type: binding
Protocol: FIG. 9 ^1H NMR spectrum (400 MHz, CDCl3, 22° C.) of (A) calixarene octabutylamide (5 mM) in CDCl3, (B) the same compound after addition of 1 equiv. of NaPic. (C) the same compound after addition of 2 equiv. of NaPic.
The secondary amide NH and the core aromatic ring framework, in this case the calix[4]arene framework, are essential for the HCl transport activity of 2. Calix[4]arene octabutylamide 3 was used as a negative control for tetrabutylamide 2, as the lack of amide NH protons in 3 would preclude Cl^− binding. Instead, 3 should be a cation ionophore, much like tetrakis(diethylcarbamoylmethoxy)-p-tert-butylcalix[4]arene-1,3-alt that coordinates cations in the solid-state and solution. To confirm that 3 binds Na^+, sodium picrate extraction in CDCl3 was monitored by ^1H NMR spectroscopy. Complexation of the salt by 3 was evident. Two distinct complexes were formed, corresponding to a 1:1 and a 2:1 Na^+:3 stoichiometry. The 1:1 complex was generated by adding 1 equiv of solid sodium picrate to a solution of 3. Binding this Na^+ led to a symmetry loss for 3, indicated by doubling of the ^1H NMR peaks. […] In contrast, sodium picrate extraction by calix[4]arene tetrabutylamide 2 was not detected by ^1H NMR spectroscopy.

HEK-293 cells = experiment: patch-clamp recordings in whole-cell configuration; assay type: cell-based
Text: FIG. 11 illustrates voltage clamp recordings in whole cell configuration (HEK-293 cells). (A) Current across membrane after application of calixarene tetrabutylamide 2 at different voltages. From bottom to top, trace denotes currents at −120, −80, −40, 0, 40, 80 and 120 mV, respectively, with saline physiological buffer being used (B) Current across membrane in a sodium glutamate isosmotic-buffer at different voltages. The potential was varied over a range of −120 through +120 mV, with a 40 mV step. (C) Current across membrane in Na2SO4 isosmotic buffer at different voltages. The potential was varied over a range of −120 through +120 mV, with a 40 mV steps. (D) Current across the membrane at +120 mV in application/wash cycle traces from bottom to top denote current in absence of 2, current after first application of 2 (a), following by […] lavage, second application (b), and third application (c). Trace on top denotes current after lavage without application of 2. Baselines of the first and last traces shifted for clarity, saline physiological buffer used.
Electrophysiological Recordings. Patch-Clamp Experiments. HEK 293 cells, plated in […] dishes containing 10 mL of the growth media were maintained at 37° C. with 5% CO2 in the incubator. Growth medium for HEK 293 cells was minimum essential medium supplemented with 10% fetal bovine serum, 100 U mL penicillin and 100 μg/mL streptomycin. Electrophysiological recordings were performed in the whole-cell configuration of the patch-clamp technique using a DAGAN 8900 amplifier (Dagan Corp., Minneapolis, Minn.). The patch electrodes, pulled from borosilicate class capillaries, had resistance of 3-4 MΩ when filled with internal solution containing (in mM): CsCl 110: tetraethylammonium chloride, 20; MgATP. 5:EGTA. 14: HEPES, 20 and titrated to pH 7.4 with CsOH. Approximately 90% of electrode resistance was compensated electronically, so that effective series resistance was less than 1 MΩ. HEK cells were used for experiments 2 to 4 days after plating the cells on the cover sips. Generation of the voltage-clamp protocols and data acquisition were carried out using PCLAMP software (Axon instruments, Inc., Burlingame, Calif.). Sampling frequency was 0.5-2.0 kHz, and current signals were filtered at […] before digitization and storage. All experiments were performed at room temperature (23-25° C.). […] Cells plated on plastic cover slips 915 mm round thermanox, Nunc, Inc., Napierville, Ill.) were transferred to an experimental chamber mounted on the stage of an inverted microscope (Diaphot, Nikon, Nagano, Japan) and were bathed in a solution containing (in mM):NaCl, 137:CaCl2, 2; KCl. 5.4; HEPES, 10; glucose, 10:glucose, 10; MgCl2, 1 (pH 7.4 adjusted with NaOH). The experimental chamber was constantly perfused at a rate of about 1 mL/min with a control bathing solution. In solutions buffered on the cell under recording KCl was omitted and in some experiments NaCl was replaced by isoosmotic amounts of Na2SO4 or Na glutamate. Servo-controlled miniature solenoid valves were used for rapid switching between control and test solutions (delay in solution change was <20 ms). Compound 2 was dissolved in DMSO, and DMSO was added in an equal amount to the control and test solutions.

For `CCCCNC(=O)COc1c2cccc1Cc1cccc(c1OCC(=O)NCCCC)Cc1cccc(c1OCC(=O)NCCCC)Cc1cccc(c1OCC(=O)NCCCC)C2` [calix[4]arene tetrabutylamide 2, Calix[4]arene tetrabutylamide], the sodium picrate extraction [1] was “not detected”, the “lavage time after which the current returned to the baseline” value (HEK-293 cells; +120 mV) was 1.5 min and the “cells that responded at +80 mV” value (HEK-293 cells; NaCl buffer) was 3 of 15. The “damage to the cell membrane” value (HEK-293 cells; application/wash cycle) was “did not damage the cell membrane”, the “holding potential at which current across the cell membrane was caused” value (HEK-293 cells; extracellular application, NaCl buffer) was “+120 mV” and the “current in isosmotic Na glutamate or Na2SO4 buffer” value (HEK-293 cells; holding potentials between −120 and +120 mV) was “no current across the membrane”.
